Measured values published in PMC4626089, “In Vitro Mutational Analysis of the β2 Adrenergic Receptor, an In Vivo Surrogate Odorant Receptor” (PLoS ONE, 2015).

Key:
mβ2AR::GFP fusion Y326A = mβ2AR::GFP fusion Y326A (Mus musculus, UniProt P18762, Y326A); assay: cell-based; conditions: read-out: Maximum response (% of mβ2AR::GFP)
Description: (§1) Calcium-based Fluorometric Imaging Plate Reader (FLIPR) experiments were performed as described previously. Mutants analyzed in each figure come from the same FLIPR experiment. […] Relative Fluorescent Units were baseline corrected by subtracting the lowest fluorescent measure for each experiment and a curve was fitted using a 3 parameters model (Hill Slope = 1) using the GraphPad software. Half maximal effective concentrations (EC50) were then calculated and are given in nM. The maximum response, as a percent of wild type, was calculated by reporting the span for a mutant over the span for the wild type.

[1] = target: mβ2AR::GFP fusion mouse C327R (Mus musculus, UniProt P18762, C327R); assay: cell-based; conditions: read-out: Maximum response (% of mβ2AR::GFP)
Description: as §1

[2] = target: mβ2AR::GFP fusion mouse E268A (Mus musculus, UniProt P18762, E268A); assay: cell-based; conditions: read-out: Maximum response (% of mβ2AR::GFP), span of mutant over span of wild type; Fig 4K
Description: as §1

[3] = target: mβ2AR::GFP fusion mouse RDY (Mus musculus, UniProt P18762, D130R/R131D); assay: cell-based; conditions: Fig 4K
Description: as §1

[4] = target: mβ2AR::GFP fusion no-NxS (N6A and N15A) (Mus musculus, UniProt P18762, N15A/N6A); assay: cell-based; conditions: read-out: Maximum response (% of mβ2AR::GFP)
Description: as §1

[5] = target: mβ2AR::GFP fusion ΔCt➔E338 (Mus musculus, UniProt P18762); assay: cell-based; conditions: read-out: Maximum response (% of mβ2AR::GFP)
Description: as §1

[6] = target: mβ2AR::GFP fusion ΔCt➔L339 (Mus musculus, UniProt P18762); assay: cell-based; conditions: read-out: Maximum response (% of mβ2AR::GFP)
Description: as §1

[7] = target: mβ2AR::GFP fusion ΔCt➔Y350 (Mus musculus, UniProt P18762); assay: cell-based; conditions: read-out: Maximum response (% of mβ2AR::GFP)
Description: as §1

[8] = system: mβ2AR::GFP fusion M71-Nt/Y326A/ΔCt➔R328; conditions: FLIPR dose response; Fig 6E and 6F, comparable to mock
Description: as §1

[9] = target: mβ2AR::GFP fusion M71-Nt/mβ2AR/M71-Ct (Mus musculus, UniProt P18762); conditions: span of mutant over span of wild type; Fig 7
Description: as §1

[10] = system: mβ2AR::GFP fusion NtΔ9AA/Y326A/ΔCt➔R328; conditions: FLIPR dose response; Fig 6E and 6F, comparable to mock
Description: as §1

[11] = target: mβ2AR::GFP fusion NtΔ9AA/mβ2AR/M71-Ct (Mus musculus, UniProt P18762); conditions: span of mutant over span of wild type; Fig 7
Description: as §1

[12] = target: mβ2AR::GFP fusion NtΔ9AA/ΔCt➔Y350/ΔC341 (Mus musculus, UniProt P18762, DEL341, form not given); conditions: span of mutant over span of wild type; Fig 3
Description: as §1

[13] = target: mβ2AR::GFP fusion Y326A/ΔCt➔R328 (Mus musculus, UniProt P18762, Y326A); conditions: FLIPR dose response; Fig 6E, comparable to no plasmid-mock transfection
Description: as §1

[14] = target: mβ2AR::GFP fusion mβ2AR/M71-Ct (Mus musculus, UniProt P18762); conditions: span of mutant over span of wild type; Fig 7
Description: as §1

[15] = target: mβ2AR::GFP fusion no-NxS/Y326A/ΔCt➔R328 (Mus musculus, UniProt P18762, N15A/N6A/Y326A); conditions: FLIPR dose response; Fig 6E and 6F, comparable to mock
Description: as §1

[16] = target: mβ2AR::GFP fusion ΔCt➔A335 (Mus musculus, UniProt P18762); conditions: FLIPR dose response; Fig 5E
Description: as §1

[17] = target: mβ2AR::GFP fusion ΔCt➔Q337 (Mus musculus, UniProt P18762); conditions: FLIPR dose response; Fig 5E
Description: as §1

[18] = system: rat I7 (rI7) OR, rI7(RDY); design: method as in PMID 16990513, PMID 25550517; conditions: neurons expressing rI7(RDY); cited from earlier work

`CC(C)NCC(O)c1ccc(O)c(O)c1` (centres unmarked) [Isoprenaline, isoprenaline] gave an Emax (mβ2AR::GFP fusion Y326A) of 89%, an Emax [1] of 58% and an Emax [2] of 51%. For the same compound, the Emax ([3]; read-out: Maximum response (% of mβ2AR::GFP), span of mutant over span of wild type) was 58%, the “Maximum response (% of mβ2AR::GFP)” value ([3]; span of mutant over span of wild type) was ~ 60% and the Emax [4] was 120%. It also gave an Emax [5] of 19%, an Emax [6] of 27% and an Emax [7] of 70%. The induction by isoprenaline [8] was “not induced”, the “Maximum response (% of mβ2AR::GFP)” value [9] was 32% and the induction by isoprenaline [10] was “not induced”. For the same compound, the “Maximum response (% of mβ2AR::GFP)” value [11] was 34%, the “Maximum response (% of mβ2AR::GFP)” value [12] was 77% and the “capacity to signal after isoprenaline exposure” value [13] was “no capacity to signal”. The “Maximum response (% of mβ2AR::GFP)” value [14] was 47%, the induction by isoprenaline [15] was “not induced” and the isoprenaline-mediated responses [16] was “do not find isoprenaline-mediated responses”. The isoprenaline-mediated responses [17] was “do not find isoprenaline-mediated responses”.

For `CCCCCCCC=O` [octanal], the “Ca2+ signals in response to octanal” value [18] is listed as “do not show Ca^2+ signals”.
